Measured values published in patent publication US4626547A, “Antibiotic AM-2604-A, an anti-trichomonas agent, anti-caccidium agent, anti-viral agent and anti-fungal agent containing the same and methods of use of the same” (The Kitasato Institute, priority 1982, dated 1986).
Converted amounts (≈) assume the structure as drawn. “Also recorded” adds a separate entry of the source.

Assays:
[1] = test system: Newcastle disease virus (NDV); assay: microbe, parasite or virus in culture; format: cell-based; conditions: avian paramyxovirus 1, 96 h; read-out: 50% Effective Dose (ED50)
Piricularia oryzae = assay: microbe, parasite or virus in culture; format: cell-based
Xanthomonas oryzae = assay: microbe, parasite or virus in culture; format: cell-based
Saccharomyces sake = assay: MIC by agar dilution method; format: cell-based
Description: (§1) The minimum inhibitory concentrations (MIC) of the antibiotic substance as determined by the agar dilution method are shown in Table 1 below.

[2] = test system: Mycobacterium smegmatis ATCC 607; assay: MIC by agar dilution method; format: cell-based; conditions: Mycolicibacterium smegmatis, ATCC607
Description: as §1

Mucor racemosus = assay: MIC by agar dilution method; format: cell-based
Description: as §1

Alternaria kikuchiana = assay: MIC by agar dilution method; format: cell-based
Description: as §1

[3] = test system: Staphylococcus aureus ATCC 65389; assay: MIC by agar dilution method; format: cell-based; conditions: ATCC65389
Description: as §1

Fusarium oxysporum = assay: MIC by agar dilution method; format: cell-based
Description: as §1

[4] = test system: Micrococcus luteus ATCC 9341; assay: MIC by agar dilution method; format: cell-based; conditions: ATCC9341
Description: as §1

Aspergillus niger = assay: MIC by agar dilution method; format: cell-based
Description: as §1

[5] = test system: Trichophyton interdigitale; assay: MIC by agar dilution method; format: cell-based
Description: as §1

Escherichia coli NIHJ = assay: MIC by agar dilution method; format: cell-based
Description: as §1

Candida albicans = assay: MIC by agar dilution method; format: cell-based
Description: as §1

Monilinia fructicola = assay: MIC by agar dilution method; format: cell-based
Description: as §1

[6] = test system: Proteus vulgarius IFO 3167; assay: MIC by agar dilution method; format: cell-based
Description: as §1

Botrytis cinerea = assay: MIC by agar dilution method; format: cell-based
Description: as §1

[7] = test system: Bacillus subtilis ATCC 6633; assay: MIC by agar dilution method; format: cell-based; conditions: ATCC6633
Description: as §1

Microsporum gypseum = assay: MIC by agar dilution method; format: cell-based; conditions: Nannizzia gypsea
Description: as §1

DNA or RNA viruses = assay: Antiviral activity (summary); format: cell-based, virus
[8] = test system: DIE strain of vaccinia virus (Vac-DIE); assay: microbe, parasite or virus in culture; format: cell-based; conditions: Orthopoxvirus vaccinia, 96 h; read-out: 50% Effective Dose (ED50)
[9] = test system: IHD strain of vaccinia virus (Vac-IHD); assay: microbe, parasite or virus in culture; format: cell-based; conditions: Orthopoxvirus vaccinia, 96 h; read-out: 50% Effective Dose (ED50)
[10] = test system: Western equine encephalitis virus (WEE); assay: microbe, parasite or virus in culture; format: cell-based; conditions: 48 h, read-out: 50% Effective Dose (ED50)
Eimeria tenella = assay: Effectiveness on coccidium-infected chicken; format: in vivo, white leghorn male chicks infected with Eimeria tenella; conditions: for Disorder of Cecum, grade - (Normal): chicks per group with grade -; for Disorder of Cecum, grade ± (Minor): chicks per group with grade ±; for Ratio of Increment of Weight: non-infected control = 1.00
Protocol: The potency of the antibiotic substance on coccidium-infected chickens was determined as follows:
Two-week-old white leghorn male chicks were divided into four groups of ten each. The feed used in this assay was a commercially available chick-breeding standard feed (major components: 19% crude protein, 2.5% crude fat, 5.0% crude fiber, 8.0% crude ash, 0.7% calcium, and 0.55% phosphorus).
One day after the start of feeding, 2×10^4 mature oocysts of Eimeria tenella per chick were orally administered to the chicks of the groups (Groups 1, 2 and 3) except for a non-infected control group (Group 4). Thereafter, the chicks of Groups 1 and 2 were bred by feeding the standard feed containing 0.005% and 0.0l% of the antibiotic substance, respectively, and Groups 3 and 4 were bred by feeding only the standard feed.
During the breeding period, the weight of each chick was measured, and the blood in the feces was observed. Furthermore, the number of oocysts in the feces 7 days after the infection of the oocysts were counted, and the disorder of cecum was examined by necropsy. In this way, the anti-coccidium action of the antibiotic substance was determined.
The items in Table 3 are as follows: [formula]
The amount of blood from the intestine of the chick is judged from the number of blood stains.
+ Minor, but slight disorder is observed.
++ Moderate hypertrophy is observed.
+++ Serious (disorder is very significant)
Number of oocysts per gram of the feces 7 days after the infection

fungi [11] = assay: Antifungal activity (summary); format: cell-based
[12] = test system: Vesicular stomatitis virus (VSV); assay: microbe, parasite or virus in culture; format: cell-based; conditions: 48 h, read-out: 50% Effective Dose (ED50)
Solubility in solvents = format: physicochemical
[13] = test system: Herpes virus Type No. 2 (HSV-2); assay: Antiviral plaque-formation reduction in CE cells; format: cell-based; conditions: Human alphaherpesvirus 2, 72 h, 20 h pretreatment, 3 days, read-out: 50% Effective Dose (ED50)
Gram-positive bacteria = assay: Antibacterial activity against Gram-positive bacteria (summary); format: cell-based
[14] = Toxicity testing, intraperitoneal injection; conditions: mouse, in vivo, ip, mice
Protocol: The toxicity testing of the antibiotic AM-2604-A substance was performed using mice by the intraperitoneal injection method.

Trichomonas foetus = assay: Infection-therapy test of Trichomonas foetus-infected mice; format: in vivo, mice infected with Trichomonas foetus; conditions: for Number of Mice That Died / Cured Mice / Living Mice with Formation of Ascites / Mice with Trichomonas foetus: oral; for Cured Mice / Living Mice with Formation of Ascites / Mice with Trichomonas foetus: 7 days
Protocol: An infection-therapy test of Trichomonas foetus-infected mice was performed as follows:
Mice were divided into groups of ten. Trichomonas foetus was cultivated at 37° C. on a Trichocel broth with 5% inactivated calf serum added (produced by BBL Co.) for 48 hours. One milliliter of the Trichomonas foetus-containing solution (4×10^6 cells/ml) was injected intraperitoneally into mice having a weight of about 20 g. […]
The infection-therapy effect was judged as follows:
Seven days after the injection of Trichomonas foetus, the formation of ascites was examined. In the case of mice in which ascites was formed, the ascites were taken out and the presence of Trichomonas foetus was examined using a microscope.

[15] = test system: Herpes virus Type No. 1 (HSV-1); assay: Antiviral plaque-formation reduction in CE cells; format: cell-based; conditions: Human alphaherpesvirus 1, 72 h, 20 h pretreatment, 3 days, read-out: 50% Effective Dose (ED50)
Gram-negative bacteria = assay: Antibacterial activity against Gram-negative bacteria (summary); format: cell-based
Sindbis virus (Sb) = assay: Antiviral plaque-formation reduction in CE cells; format: cell-based; conditions: 48 h, 20 h pretreatment, 2 days, read-out: 50% Effective Dose (ED50)
fungi [16] = conditions: known antibiotic substances, literature; cited from earlier work
[17] = drug amount administered 4 mg/kg
[18] = drug amount administered 8 mg/kg

C/C=C/C1OC(O)(C(C)C(O)C(C)C2OC(=O)C(OC)=CC(C)=CC(C)C(O)C(CC)C(O)C(C)CC(C)=CC=CC2OC)CC(OC(=O)/C=C/C(=O)NC2=C(O)CCC2=O)C1C (stereo not shown) [AM-2604-A]
EC50 [1]: 0.0003 µg/mL (≈ 0.000339 µM) | MIC (Piricularia oryzae): 12.5 µg/mL (≈ 14.1 µM) | MIC (Xanthomonas oryzae): > 50 µg/mL | MIC (Saccharomyces sake): 100 µg/mL (≈ 113 µM) | MIC [2]: > 100 µg/mL | MIC (Mucor racemosus): 50 µg/mL (≈ 56.4 µM) | MIC (Alternaria kikuchiana): > 50 µg/mL | MIC [3]: > 100 µg/mL | MIC (Fusarium oxysporum): > 100 µg/mL | MIC [4]: > 100 µg/mL | MIC (Aspergillus niger): > 100 µg/mL | MIC [5]: 50 µg/mL (≈ 56.4 µM) | MIC (Escherichia coli NIHJ): > 100 µg/mL | MIC (Candida albicans): > 100 µg/mL | MIC (Monilinia fructicola): 12.5 µg/mL (≈ 14.1 µM) | MIC [6]: > 100 µg/mL | MIC (Botrytis cinerea): > 50 µg/mL | MIC [7]: > 100 µg/mL | MIC (Microsporum gypseum): 50 µg/mL (≈ 56.4 µM) | activity against viruses (in words) (DNA or RNA viruses): high inhibitory activity; also recorded: active | EC50 [8]: 0.0003 µg/mL (≈ 0.000339 µM) | EC50 [9]: 0.0003 µg/mL (≈ 0.000339 µM) | EC50 [10]: 0.0003 µg/mL (≈ 0.000339 µM) | Increment of Weight (Eimeria tenella; Group 1, 0.005% in feed): 1.83 | Disorder of Cecum, grade + (Minor, but slight disorder is observed) (Eimeria tenella; Group 1, 0.005% in feed, chicks per group with grade +): 1/10 | Disorder of Cecum, grade - (Normal) (Eimeria tenella; Group 1, 0.005% in feed): 8/10 | Disorder of Cecum, grade ± (Minor) (Eimeria tenella; Group 1, 0.005% in feed): 1/10 | Ratio of Increment of Weight (Eimeria tenella; Group 1, 0.005% in feed): 0.99 | Increment of Weight (Eimeria tenella; Group 2, 0.01% in feed): 1.86 | Number of Oocysts (on the average) (Eimeria tenella; Group 2, 0.01% in feed, 7 days after the infection): 0 per gram of the feces | Disorder of Cecum, grade - (Normal) (Eimeria tenella; Group 2, 0.01% in feed): 9/10 | Disorder of Cecum, grade ± (Minor) (Eimeria tenella; Group 2, 0.01% in feed): 1/10 | Ratio of Increment of Weight (Eimeria tenella; Group 2, 0.01% in feed): 1.01 | anticoccidium action (in words) (Eimeria tenella; summary of Table 3): excellent anticoccidium action; also recorded: active | activity against fungi (in words) (fungi [11]): active | EC50 [12]: 0.0003 µg/mL (≈ 0.000339 µM) | Solubility in organic solvents such as chloroform, acetone, and ethyl acetate (Solubility in solvents; chloroform, acetone, ethyl acetate): Soluble | Solubility in lower alcohols (Solubility in solvents; lower alcohols): sparingly soluble | Solubility in n-hexane and water (Solubility in solvents; n-hexane and water): insoluble | EC50 [13]: 0.0003 µg/mL (≈ 0.000339 µM) | activity against Gram-positive bacteria (in words) (Gram-positive bacteria): little antibacterial activity; also recorded: almost inactive | LD50 [14]: 3 mg/kg | Number of Mice That Died (Trichomonas foetus; [17]): 2/10 | Cured Mice (Trichomonas foetus; [17]): 5/10 | Living Mice with Formation of Ascites (Trichomonas foetus; [17]): 2/10 | Mice with Trichomonas foetus (Trichomonas foetus; [17]): 5/10 | Number of Mice That Died (Trichomonas foetus; [18]): 1/10 | Cured Mice (Trichomonas foetus; [18]): 8/10 | Living Mice with Formation of Ascites (Trichomonas foetus; [18]): 1/10 | Mice with Trichomonas foetus (Trichomonas foetus; [18]): 2/10 | anti-trichomonas action (in words) (Trichomonas foetus; summary of Table 4): excellent anti-trichomonas action; also recorded: active | EC50 [15]: 0.0003 µg/mL (≈ 0.000339 µM) | activity against Gram-negative bacteria (in words) (Gram-negative bacteria): little antibacterial activity | EC50 (Sindbis virus (Sb)): 0.0005 µg/mL (≈ 0.000564 µM)

COC1=CC(C)=CC(C)C(O)C(C)CC(C)=CC=CC(OC)C(C(C)C(O)C(C)C2(O)CC(OC(=O)/C=C/C(=O)NC3=C(O)CCC3=O)C(C)C(C(C)C)O2)OC1=O (stereo not shown) [Setamycin]
activity against fungi of known antibiotics (in words) (fungi [16]): active
